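How tested: cells in 96-well plates exposed to compound for 48 hours at five concentrations. TGI: concentration producing complete growth inhibition.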
Experiments:
Test in all cases: NCI-60 cell line screen, 48 h
[1] = test system: SK-MEL-5 melanoma
[2] = test system: OVCAR-3 ovarian
[3] = test system: NCI/ADR-RES ovarian
[4] = test system: SK-MEL-28 melanoma
[5] = test system: RXF 393 renal
[6] = test system: SR leukemia
[7] = test system: HS 578T breast
[8] = test system: UACC-62 melanoma
[9] = test system: ACHN renal
[10] = test system: CAKI-1 renal
[11] = test system: M14 melanoma
[12] = test system: SN12C renal
[13] = test system: SF-295 CNS
[14] = test system: SF-268 CNS
[15] = test system: LOX IMVI melanoma
[16] = test system: MDA-MB-231 breast
[17] = test system: SK-MEL-2 melanoma
[18] = test system: SW-620 colon
[19] = test system: NCI-H460 lung
[20] = test system: SNB-19 CNS
[21] = test system: OVCAR-8 ovarian
[22] = test system: EKVX NSCLC
[23] = test system: OVCAR-5 ovarian
[24] = test system: BT-549 breast
[25] = test system: K-562 leukemia
[26] = test system: HL-60(TB) leukemia
[27] = test system: HT29 colon
[28] = test system: UO-31 renal
[29] = test system: RPMI-8226 leukemia
[30] = test system: CCRF-CEM leukemia
[31] = test system: OVCAR-4 ovarian
[32] = test system: TK-10 renal
[33] = test system: HCT-116 colon
[34] = test system: PC-3 prostate
[35] = test system: MDA-MB-435
[36] = test system: UACC-257 melanoma
[37] = test system: KM12 colon
[38] = test system: NCI-H522 lung
[39] = test system: MDA-N
[40] = test system: HOP-92 NSCLC
[41] = test system: A549 NSCLC
[42] = test system: HCC-2998 colon
[43] = test system: SNB-75 CNS
[44] = test system: NCI-H23 lung
[45] = test system: MOLT-4 leukemia
[46] = test system: HCT-15 colon
[47] = test system: T-47D breast
[48] = test system: SF-539 CNS
[49] = test system: COLO 205 colon
[50] = test system: DU-145 prostate
[51] = test system: SK-OV-3 ovarian
[52] = test system: IGROV1 ovarian
[53] = test system: U251 CNS
[54] = test system: MALME-3M melanoma
[55] = test system: MCF7 breast
[56] = test system: 786-0 renal
[57] = test system: HOP-62 NSCLC
[58] = test system: NCI-H226 lung
[59] = test system: A498 renal

For `NC(CCCCCP(=O)(O)O)C(=O)O` (stereo not drawn), the TGI [1] was > 100 µM, the TGI [2] was > 100 µM and the TGI [3] was > 100 µM. For the same compound, the TGI [4] was > 100 µM, the TGI [5] was > 100 µM and the TGI [6] was > 100 µM. The TGI [7] was > 100 µM, the TGI [8] was > 100 µM and the TGI [9] was > 100 µM. The TGI [10] was > 100 µM, the TGI [11] was > 100 µM and the TGI [12] was > 100 µM. For the same compound, the TGI [13] was > 100 µM, the TGI [14] was > 100 µM and the TGI [15] was > 100 µM. The TGI [16] was > 100 µM, the TGI [17] was > 100 µM and the TGI [18] was > 100 µM. The TGI [19] was > 100 µM, the TGI [20] was > 100 µM and the TGI [21] was > 100 µM. The TGI [22] was > 100 µM, the TGI [23] was > 100 µM and the TGI [24] was > 100 µM. For the same compound, the TGI [25] was > 100 µM, the TGI [26] was > 100 µM and the TGI [27] was > 100 µM. The TGI [28] was > 100 µM, the TGI [29] was > 100 µM and the TGI [30] was > 100 µM. The TGI [31] was > 100 µM, the TGI [32] was > 100 µM and the TGI [33] was > 100 µM. The TGI [34] was > 100 µM, the TGI [35] was > 100 µM and the TGI [36] was > 100 µM. The TGI [37] was > 100 µM, the TGI [38] was > 100 µM and the TGI [39] was > 100 µM. The TGI [40] was > 100 µM, the TGI [41] was > 100 µM and the TGI [42] was > 100 µM. The TGI [43] was > 100 µM, the TGI [44] was > 100 µM and the TGI [45] was > 100 µM. For the same compound, the TGI [46] was > 100 µM, the TGI [47] was > 100 µM and the TGI [48] was > 100 µM. The TGI [49] was > 100 µM, the TGI [50] was > 100 µM and the TGI [51] was > 100 µM. The TGI [52] was > 100 µM and the TGI [53] was > 100 µM.

For `Cc1nn2c(N)cc(=O)nc2nc1/C=C/c1ccc(N(C)C)cc1`, the TGI [1] was > 100 µM, the TGI [3] was > 100 µM and the TGI [4] was > 100 µM. For the same compound, the TGI [5] was > 100 µM, the TGI [6] was > 100 µM and the TGI [7] was > 100 µM. For the same compound, the TGI [8] was > 100 µM, the TGI [9] was > 100 µM and the TGI [10] was > 100 µM. The TGI [11] was > 100 µM, the TGI [12] was > 100 µM and the TGI [54] was 49.8 µM. The TGI [13] was > 100 µM, the TGI [55] was > 100 µM and the TGI [14] was > 100 µM. For the same compound, the TGI [15] was 22 µM, the TGI [16] was > 100 µM and the TGI [17] was > 100 µM. For the same compound, the TGI [18] was > 100 µM, the TGI [19] was > 100 µM and the TGI [20] was > 100 µM. For the same compound, the TGI [21] was > 100 µM, the TGI [22] was > 100 µM and the TGI [23] was > 100 µM. For the same compound, the TGI [24] was > 100 µM, the TGI [25] was > 100 µM and the TGI [26] was 0.0117 µM. For the same compound, the TGI [27] was > 100 µM, the TGI [56] was > 100 µM and the TGI [28] was > 100 µM. For the same compound, the TGI [29] was > 100 µM, the TGI [30] was 2.41 µM and the TGI [31] was > 100 µM. For the same compound, the TGI [32] was > 100 µM, the TGI [33] was > 100 µM and the TGI [34] was > 100 µM. The TGI [35] was > 100 µM, the TGI [36] was > 100 µM and the TGI [37] was > 100 µM. For the same compound, the TGI [57] was > 100 µM, the TGI [38] was 7.62 µM and the TGI [39] was > 100 µM. The TGI [40] was > 43.6 µM, the TGI [41] was > 100 µM and the TGI [42] was 23.3 µM. For the same compound, the TGI [58] was > 100 µM, the TGI [44] was > 100 µM and the TGI [45] was > 100 µM. For the same compound, the TGI [46] was > 27.9 µM, the TGI [47] was > 100 µM and the TGI [49] was > 100 µM. For the same compound, the TGI [50] was > 100 µM, the TGI [51] was > 100 µM and the TGI [52] was > 100 µM. For the same compound, the TGI [53] was > 100 µM.

`O=[N+]([O-])c1cc2n[nH]nc2c2nonc12` was tested, and the TGI [1] was 24.7 µM, the TGI [2] was 95.1 µM and the TGI [3] was > 100 µM. For the same compound, the TGI [4] was > 100 µM, the TGI [6] was > 100 µM and the TGI [7] was 58.8 µM. For the same compound, the TGI [9] was 67.6 µM, the TGI [10] was 77.7 µM and the TGI [11] was 47.4 µM. The TGI [12] was > 100 µM, the TGI [54] was > 100 µM and the TGI [13] was > 100 µM. The TGI [55] was 21.5 µM, the TGI [14] was > 100 µM and the TGI [15] was > 100 µM. The TGI [16] was > 100 µM, the TGI [17] was > 100 µM and the TGI [18] was > 100 µM. The TGI [19] was > 100 µM, the TGI [20] was > 100 µM and the TGI [21] was 58.1 µM. For the same compound, the TGI [22] was > 100 µM, the TGI [23] was 76.5 µM and the TGI [24] was 24.1 µM. For the same compound, the TGI [25] was > 100 µM, the TGI [26] was 61.3 µM and the TGI [27] was > 100 µM. The TGI [56] was > 100 µM, the TGI [28] was 38.6 µM and the TGI [29] was > 100 µM. For the same compound, the TGI [30] was 59.9 µM, the TGI [31] was > 100 µM and the TGI [32] was > 100 µM. For the same compound, the TGI [33] was 43.7 µM, the TGI [34] was > 100 µM and the TGI [35] was 30.1 µM. For the same compound, the TGI [36] was 63 µM, the TGI [37] was > 100 µM and the TGI [57] was > 100 µM. The TGI [38] was 32.6 µM, the TGI [39] was 80.5 µM and the TGI [40] was > 100 µM. The TGI [41] was > 100 µM, the TGI [42] was 38.7 µM and the TGI [43] was > 100 µM. For the same compound, the TGI [58] was 40.9 µM, the TGI [44] was 83.3 µM and the TGI [45] was 95.6 µM. For the same compound, the TGI [46] was > 100 µM, the TGI [47] was > 100 µM and the TGI [48] was 56 µM. For the same compound, the TGI [49] was 71.5 µM, the TGI [50] was > 100 µM and the TGI [51] was > 100 µM. The TGI [52] was > 100 µM and the TGI [53] was > 100 µM.

`C=CCN1CCC(OC(=O)C(O)(/C=C\CC)C2CCCC2)CC1` (stereo not drawn) was tested, and the TGI [1] was > 100 µM, the TGI [2] was > 100 µM and the TGI [3] was > 100 µM. For the same compound, the TGI [4] was > 100 µM, the TGI [5] was > 100 µM and the TGI [7] was > 100 µM. The TGI [8] was > 100 µM, the TGI [9] was > 100 µM and the TGI [10] was > 100 µM. For the same compound, the TGI [11] was > 100 µM, the TGI [12] was > 100 µM and the TGI [54] was > 100 µM. For the same compound, the TGI [13] was > 100 µM, the TGI [55] was > 100 µM and the TGI [14] was > 100 µM. For the same compound, the TGI [15] was > 100 µM, the TGI [16] was > 100 µM and the TGI [17] was > 100 µM. For the same compound, the TGI [20] was > 100 µM, the TGI [21] was > 100 µM and the TGI [22] was > 100 µM. For the same compound, the TGI [23] was > 100 µM, the TGI [24] was > 100 µM and the TGI [25] was > 100 µM. For the same compound, the TGI [26] was > 100 µM, the TGI [27] was > 100 µM and the TGI [56] was > 100 µM. The TGI [28] was > 100 µM, the TGI [29] was > 100 µM and the TGI [30] was > 100 µM. The TGI [31] was > 100 µM, the TGI [32] was > 100 µM and the TGI [33] was > 100 µM. For the same compound, the TGI [34] was > 100 µM, the TGI [35] was > 100 µM and the TGI [36] was > 100 µM. The TGI [57] was > 100 µM, the TGI [38] was > 100 µM and the TGI [59] was > 100 µM. For the same compound, the TGI [39] was > 100 µM, the TGI [40] was > 100 µM and the TGI [41] was > 100 µM. For the same compound, the TGI [43] was > 100 µM, the TGI [58] was > 100 µM and the TGI [44] was > 100 µM. For the same compound, the TGI [45] was > 100 µM, the TGI [46] was > 100 µM and the TGI [47] was > 100 µM. The TGI [48] was > 100 µM, the TGI [49] was > 100 µM and the TGI [50] was > 100 µM. For the same compound, the TGI [51] was > 100 µM, the TGI [52] was > 100 µM and the TGI [53] was > 100 µM.

Source: PubChem BioAssay (NCI)
